In patent publication US20130109682A1, “CYCLIC ETHER COMPOUNDS USEFUL AS KINASE INHIBITORS” (NOVARTIS AG, priority 2010, published 2013):
Like-named read-outs stand apart in the source and are kept apart here.

What was measured:
[1] = system: KMS11 (human myeloma cell line); test: Cell proliferation assay (CellTiter-Glo), KMS11; assay type: cell-based; conditions: Homo sapiens, KMS-11
Outline: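 EC50 derived from CellTiter-Glo luminescence after 3-day exposure at 37° C. Compound was diluted to 2× in medium and added to an equal volume of cells. KMS11 myeloma cells were plated on assay day at 2000/well in IMDM with 10% FBS and sodium pyruvate.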

FGFR3 kinase = FGFR3 kinase (Homo sapiens, UniProt P22607); test: FGFR3 kinase inhibition assay (LanthaScreen TR-FRET); assay type: biochemical
Chain of FGFR3 kinase (P22607 23-806): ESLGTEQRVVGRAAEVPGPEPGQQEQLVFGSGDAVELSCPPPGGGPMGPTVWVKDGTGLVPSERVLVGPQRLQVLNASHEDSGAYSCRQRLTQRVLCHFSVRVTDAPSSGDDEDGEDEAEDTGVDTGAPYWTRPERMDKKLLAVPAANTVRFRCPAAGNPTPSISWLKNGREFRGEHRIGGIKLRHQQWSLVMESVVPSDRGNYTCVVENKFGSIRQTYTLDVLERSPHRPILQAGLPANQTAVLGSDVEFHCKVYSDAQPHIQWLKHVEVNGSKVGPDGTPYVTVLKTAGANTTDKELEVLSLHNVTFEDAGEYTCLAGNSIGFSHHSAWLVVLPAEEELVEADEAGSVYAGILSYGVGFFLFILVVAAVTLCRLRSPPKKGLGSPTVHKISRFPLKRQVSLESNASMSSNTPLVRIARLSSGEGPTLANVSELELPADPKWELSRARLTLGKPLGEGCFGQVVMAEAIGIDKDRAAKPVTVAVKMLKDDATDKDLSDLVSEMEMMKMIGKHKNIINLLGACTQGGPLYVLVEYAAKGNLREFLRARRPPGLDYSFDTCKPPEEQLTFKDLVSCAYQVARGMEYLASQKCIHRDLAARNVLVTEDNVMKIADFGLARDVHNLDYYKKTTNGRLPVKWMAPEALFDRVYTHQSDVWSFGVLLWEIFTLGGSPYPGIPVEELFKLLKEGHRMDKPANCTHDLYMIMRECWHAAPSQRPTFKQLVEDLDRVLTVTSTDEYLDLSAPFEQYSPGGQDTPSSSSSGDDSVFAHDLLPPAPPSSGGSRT
Method: FGFR3 Kinase Inhibition Assay
LanthaScreen™ is the detection of Time-Resolved Fluorescence Resonance Energy Transfer (TR-FRET) using lanthanide chelates to measure interactions between various binding partners. The application of TR-FRET to assay kinase activity was first described by Mathis (1995). A TR-FRET assay was used to measure FGFR3 kinase inhibitory activity. The assay panel was run on a Biomek FX liquid handling workstations. To the assay plates containing […] compound or control solutions, 4.5 μL of buffer A (50 mM TRIS-HCl pH 7.4, 2 mM DTT, 0.02% Tween 20, 0.02 mM Na3VO4, H2O nanpure) including a generic concentration of ATP (2 μM f.c.) was added per well, followed by 4.5 μL of buffer B (4 uM ATP in Buffer A) including a generic concentration of polyEAY (50 nM f.c.), FGFR3 kinase, and divalent cations. Final concentration of kinase and cations were: [FGFR3 kinase]=0.20 nM, [Mg]=3 mM, [Mn]=3 mM. After 1 hour of incubation the kinase reactions were stopped by the addition of 4.5 μL of stop solution D (50 mM EDTA, 20 mM TRIS-HCl pH 7.4, 0.04% NP-40) immediately followed by 4.5 μL of buffer A (50 mM TRIS-HCl pH 7.4, 2 mM DTT, 0.02% Tween 20, 0.02 mM Na3VO4, H2O nanpure) including the Tb-labeled P-20 antibody to give a total detection volume of 18 μL. After an incubation time of 45 min in the dark, the plates were transferred into the Pherastar fluorescence reader for counting. The effect of compound on the enzymatic activity was obtained from the linear progress curves and determined from one reading (end point measurement).

PDGFRaV561D kinase = PDGFRaV561D kinase (Homo sapiens, UniProt P16234, V561D); test: PDGFRaV561D kinase inhibition assay (LanthaScreen TR-FRET); assay type: biochemical; conditions: read-out: PDGFRa IC50
Chain of PDGFRaV561D kinase (P16234 24-1089 V561D): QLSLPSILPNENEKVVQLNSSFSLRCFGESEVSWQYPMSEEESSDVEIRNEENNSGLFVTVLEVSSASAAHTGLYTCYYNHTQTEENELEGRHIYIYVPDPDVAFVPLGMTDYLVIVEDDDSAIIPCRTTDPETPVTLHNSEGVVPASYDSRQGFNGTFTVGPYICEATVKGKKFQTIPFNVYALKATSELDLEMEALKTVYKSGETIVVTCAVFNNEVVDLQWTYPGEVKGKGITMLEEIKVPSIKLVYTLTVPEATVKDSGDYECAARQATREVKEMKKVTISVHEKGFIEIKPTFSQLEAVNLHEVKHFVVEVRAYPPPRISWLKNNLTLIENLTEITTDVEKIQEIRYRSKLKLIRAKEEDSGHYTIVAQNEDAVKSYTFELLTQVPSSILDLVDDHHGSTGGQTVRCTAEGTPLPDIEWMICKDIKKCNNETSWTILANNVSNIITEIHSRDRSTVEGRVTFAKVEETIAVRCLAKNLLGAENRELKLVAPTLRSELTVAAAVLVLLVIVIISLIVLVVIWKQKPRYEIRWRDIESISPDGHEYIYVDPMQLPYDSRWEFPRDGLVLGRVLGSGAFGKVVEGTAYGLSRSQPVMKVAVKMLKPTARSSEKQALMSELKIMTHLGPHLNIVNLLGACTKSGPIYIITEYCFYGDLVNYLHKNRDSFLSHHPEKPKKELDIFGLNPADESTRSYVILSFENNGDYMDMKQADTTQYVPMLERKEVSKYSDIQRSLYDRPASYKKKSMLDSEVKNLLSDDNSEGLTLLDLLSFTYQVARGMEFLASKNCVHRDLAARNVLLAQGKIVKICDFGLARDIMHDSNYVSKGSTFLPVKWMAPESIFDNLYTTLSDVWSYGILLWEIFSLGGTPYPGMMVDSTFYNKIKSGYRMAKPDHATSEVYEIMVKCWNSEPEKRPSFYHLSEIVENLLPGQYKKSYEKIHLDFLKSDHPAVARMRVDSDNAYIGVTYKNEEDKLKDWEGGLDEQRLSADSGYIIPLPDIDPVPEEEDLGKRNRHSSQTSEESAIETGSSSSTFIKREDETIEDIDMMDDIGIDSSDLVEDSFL
Method: PDGFRaV561D Kinase Inhibition Assay
LanthaScreen™ is the detection of Time-Resolved Fluorescence Resonance Energy Transfer (TR-FRET) using lanthanide chelates to measure interactions between various binding partners. The application of TR-FRET to assay kinase activity was first described by Mathis (1995). A TR-FRET assay was used to measure PDGFRaV561D kinase inhibitory activity. The assay panel was run on a Biomek FX liquid handling workstations. To the assay plates containing […] compound or control solutions, 4.5 μL of buffer A (50 mM TRIS-HCl pH 7.4, 2 mM DTT, 0.02% Tween 20, 0.02 mM Na3VO4, H2O nanpure) including a generic concentration of ATP (2 μM f.c.) was added per well, followed by […] of buffer B (4 uM ATP in Buffer A) including a generic concentration of polyEAY (50 nM f.c.), PDGFRaV561D kinase, and divalent cations. Final concentration of kinase and cations were: [PDGFRaV561D kinase]=4.4 nM, [Mn]=10 mM. After 1 hour of incubation the kinase reactions were stopped by the addition of 4.5 μL of stop solution D (50 mM EDTA, 20 mM TRIS-HCl pH 7.4, 0.04% NP-40) immediately followed by 4.5 μL of buffer A (50 mM TRIS-HCl pH 7.4, 2 mM DTT, 0.02% Tween 20, 0.02 mM Na3VO4, H2O nanpure) including the Tb-labeled P-20 antibody to give a total detection volume of […]. After an incubation time of 45 min in the dark, the plates were transferred into the Pherastar fluorescence reader for counting. The effect of compound on the enzymatic activity was obtained from the linear progress curves and determined from one reading (end point measurement).

PIM2 = PIM2 (Homo sapiens, UniProt Q9P1W9); test: Pim 2 AlphaScreen assay (high ATP); assay type: biochemical; conditions: read-out: Pim2 IC50
Chain of PIM2 (Q9P1W9 whole entry): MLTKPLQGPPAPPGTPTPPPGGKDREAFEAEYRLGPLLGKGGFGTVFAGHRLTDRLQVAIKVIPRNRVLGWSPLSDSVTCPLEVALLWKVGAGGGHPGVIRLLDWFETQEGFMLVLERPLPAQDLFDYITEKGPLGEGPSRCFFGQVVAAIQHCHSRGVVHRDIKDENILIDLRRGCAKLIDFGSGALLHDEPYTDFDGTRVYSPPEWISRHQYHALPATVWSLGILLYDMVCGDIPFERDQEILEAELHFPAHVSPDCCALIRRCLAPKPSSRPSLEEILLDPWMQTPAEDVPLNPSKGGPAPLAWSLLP
Outline: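 IC50 values rest on detection of phosphorylated Bad peptide: after a ~2 h kinase reaction, an EDTA stop buffer containing anti-phospho Ser/Thr antibody, Protein A and streptavidin AlphaScreen beads was added and read after overnight dark incubation. ATP was high (11-125× Km), with 2.5% DMSO in pH 7.5 Hepes buffer containing MgCl2, BSA, Tween-20 and DTT.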

[2] = KMS11 cells, cell proliferation, read-out: KMS11-Luc EC50

EC50 ([1]; KMS11-Luc cells) [nM] | IC50 (PDGFRaV561D kinase) [nM] | IC50 (PIM2) [nM] | SMILES | other results
90 | – | – | C=C1[C@@H](O)C[C@@H](c2ccncc2NC(=O)c2nc(-c3ccccc3)cnc2N)OC12CC2 [Example 5, 3-amino-N-(4-((5S,7S)-7-hydroxy-8-methylene-4-oxaspiro[2.5]octan-5-yl)pyridin-3-yl)-6-phenylpyrazine-2-carboxamide] | –
1120 | – | – | C[C@H]1O[C@@H](c2ccncc2NC(=O)c2nc(-c3ccccc3)ncc2N)C[C@@H](O)[C@]1(C)O [Example 32, 5-amino-N-(4-((2R,4R,5S,6R)-4,5-dihydroxy-5,6-dimethyltetrahydro-2H-pyran-2-yl)pyridin-3-yl)-2-phenylpyrimidine-4-carboxamide] | –
200 | – | – | Nc1ncc(-c2ccccc2)nc1C(=O)Nc1cnccc1[C@H]1C[C@@H](O)[C@H](O)[C@@H](CCl)O1 [Example 36, 3-amino-N-(4-((2R,4R,5S,6S)-6-(chloromethyl)-4,5-dihydroxytetrahydro-2H-pyran-2-yl)pyridin-3-yl)-6-phenylpyrazine-2-carboxamide] | –
> 10000 | – | – | CC[C@H]1O[C@@H](c2ccncc2NC(=O)c2nc(-c3ccccc3)ncc2N)C[C@@H](O)[C@@H]1O [Example 39, 5-amino-N-(4-((2R,4R,5S,6R)-6-ethyl-4,5-dihydroxytetrahydro-2H-pyran-2-yl)pyridin-3-yl)-2-phenylpyrimidine-4-carboxamide] | –
1000 | – | – | C[C@H]1O[C@@H](c2ccncc2NC(=O)c2nc(-c3ccccc3)cnc2N)[C@H](F)[C@@H](O)[C@]1(C)O [Example 58, 3-amino-N-(4-((2S,3R,4S,5S,6R)-3-fluoro-4,5-dihydroxy-5,6-dimethyltetrahydro-2H-pyran-2-yl)pyridin-3-yl)-6-phenylpyrazine-2-carboxamide] | –
1300 | – | – | C[C@@H]1O[C@H](c2ccncc2NC(=O)c2nc(-c3ccccc3)cnc2N)[C@@H](F)[C@H](O)[C@@]1(C)O [Example 63, 3-amino-N-(4-((2R,3S,4R,5R,6S)-3-fluoro-4,5-dihydroxy-5,6-dimethyltetrahydro-2H-pyran-2-yl)pyridin-3-yl)-6-phenylpyrazine-2-carboxamide] | –
900 | – | – | C[C@H]1O[C@@H](c2ccncc2NC(=O)c2nc(-c3ccccc3)cnc2N)C[C@@H](O)[C@]1(C)O [Example 84, 3-amino-N-(4-((2R,4R,5S,6R)-4,5-dihydroxy-5,6-dimethyltetrahydro-2H-pyran-2-yl)pyridin-3-yl)-6-phenylpyrazine-2-carboxamide] | –
2800 | – | – | C[C@@H]1O[C@H](c2ccncc2NC(=O)c2nc(-c3ccccc3)cnc2N)C[C@H](O)[C@@]1(C)O [Example 86, 3-amino-N-(4-((2S,4S,5R,6S)-4,5-dihydroxy-5,6-dimethyltetrahydro-2H-pyran-2-yl)pyridin-3-yl)-6-phenylpyrazine-2-carboxamide] | –
1940 | > 10000 | – | CC[C@]1(O)[C@H](O)C[C@H](c2ccncc2NC(=O)c2nc(-c3c(F)cccc3F)ncc2N)O[C@@H]1C [Example 143, 5-amino-2-(2,6-difluorophenyl)-N-(4-((2R,4R,5S,6R)-5-ethyl-4,5-dihydroxy-6-methyltetrahydro-2H-pyran-2-yl)pyridin-3-yl)pyrimidine-4-carboxamide] | IC50 (FGFR3 kinase): > 10000 nM
– | 48 | – | Nc1ncc(-c2ccccc2)nc1C(=O)Nc1cnccc1[C@H]1C[C@@H](O)[C@@]2(O)CCCC[C@H]2O1 [Example 173, 3-amino-N-(4-((2R,4R,4aS,8aR)-4,4a-dihydroxyoctahydro-2H-chromen-2-yl)pyridin-3-yl)-6-phenylpyrazine-2-carboxamide] | IC50 (FGFR3 kinase): 45 nM
– | 23 | 89.2 | Nc1ncc(-c2ccccc2)nc1C(=O)Nc1cnccc1[C@H]1C[C@@H](N)[C@@]2(O)CCCC[C@H]2O1 [Example 197, 3-amino-N-(4-((2R,4R,4aS,8aR)-4-amino-4a-hydroxyoctahydro-2H-chromen-2-yl)pyridin-3-yl)-6-phenylpyrazine-2-carboxamide] | EC50 [1, 2]: 70 nM
– | 14 | 102 | Nc1ncc(-c2ccccc2)nc1C(=O)Nc1cnccc1[C@H]1C[C@@H](N)[C@H]2CCC[C@H]2O1 [Example 199, 3-amino-N-(4-((2R,4R,4aR,7aR)-4-aminooctahydrocyclopenta[b]pyran-2-yl)pyridin-3-yl)-6-phenylpyrazine-2-carboxamide] | EC50 [1, 2]: 590 nM
– | 630 | – | CC[C@]1(O)[C@H](N)C[C@H](c2ccncc2NC(=O)c2ccc(F)c(-c3c(F)cccc3F)n2)O[C@@H]1C [Example 232, N-(4-((2R,4R,5S,6R)-4-amino-5-ethyl-5-hydroxy-6-methyltetrahydro-2H-pyran-2-yl)pyridin-3-yl)-6-(2,6-difluorophenyl)-5-fluoropicolinamide] | IC50 (FGFR3 kinase): > 10000 nM
– | 940 | 5140 | Nc1ncc(-c2ccccc2)nc1C(=O)Nc1cnccc1[C@@H]1C[C@H](N)[C@@H]2CCC[C@@H]2O1 [Example 233, 3-amino-N-(4-((2S,4S,4aS,7aS)-4-aminooctahydrocyclopenta[b]pyran-2-yl)pyridin-3-yl)-6-phenylpyrazine-2-carboxamide] | EC50 [1, 2]: 100 nM
– | 8300 | – | Nc1ncc(-c2ccccc2)nc1C(=O)Nc1cnccc1[C@@H]1C[C@H](N)[C@]2(O)CCCC[C@@H]2O1 [Example 243, 3-amino-N-(4-((2S,4S,4aR,8aS)-4-amino-4a-hydroxyoctahydro-2H-chromen-2-yl)pyridin-3-yl)-6-phenylpyrazine-2-carboxamide] | –
– | 420 | 786 | C[C@@]1(O)[C@@H](N)C[C@@H](c2ccncc2NC(=O)c2nc(-c3ccccc3)cnc2N)OC12CC2 [Example 350, 3-amino-N-(4-((5S,7S,8R)-7-amino-8-hydroxy-8-methyl-4-oxaspiro[2.5]octan-5-yl)pyridin-3-yl)-6-phenylpyrazine-2-carboxamide] | –
– | 18 | 538 | C[C@]1(O)[C@@H](N)C[C@H](c2ccncc2NC(=O)c2nc(-c3ccccc3)cnc2N)OC12CC2 [Example 351, 3-amino-N-(4-((5R,7S,8S)-7-amino-8-hydroxy-8-methyl-4-oxaspiro[2.5]octan-5-yl)pyridin-3-yl)-6-phenylpyrazine-2-carboxamide] | –
– | 41 | 1980 | C[C@@]1(O)[C@H](N)C[C@@H](c2ccncc2NC(=O)c2nc(-c3ccccc3)cnc2N)OC12CC2 [Example 352, 3-amino-N-(4-((5S,7R,8R)-7-amino-8-hydroxy-8-methyl-4-oxaspiro[2.5]octan-5-yl)pyridin-3-yl)-6-phenylpyrazine-2-carboxamide] | –
– | 760 | 2430 | C[C@]1(O)[C@H](N)C[C@H](c2ccncc2NC(=O)c2nc(-c3ccccc3)cnc2N)OC12CC2 [Example 353, 3-amino-N-(4-((5R,7R,8S)-7-amino-8-hydroxy-8-methyl-4-oxaspiro[2.5]octan-5-yl)pyridin-3-yl)-6-phenylpyrazine-2-carboxamide] | –
